This note sets out measurements from ChEMBL document CHEMBL1201862, “PubChem BioAssay data set” (2004).

Common to all, as to experiment: NCI-60 cell line screen, 48 h
The subject of assay [1] is ACHN.
The test system of assay [2] is SF-268.
Assay [3] concerns SK-OV-3.
For assay [4], the system named is A498.
For assay [5], the system named is NCI-H522.
The test system of assay [6] is NCI/ADR-RES.
Assay [7] deals with DU-145.
Assay [8] has as its system T47D.
Assay [9] relates to SNB-75.
In assay [10] the test system is CAKI-1.
The subject of assay [11] is Malme-3M.
For assay [12], the system named is HT-29.
Assay [13] relates to OVCAR-8.
The subject of assay [14] is 786-0.
The test system of assay [15] is SK-MEL-5.
The subject of assay [16] is LOX IMVI.
In assay [17] the test system is SN12C.
The subject of assay [18] is HCC 2998.
For assay [19], the system named is OVCAR-4.
Assay [20] deals with RXF 393.

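Growth conditions: 96-well plates. Treatment: test compound, 48 hours, 5 concentrations. Analysis: linear interpolation between bracketing concentrations; unreached endpoints set to highest concentration. At the GI50, growth is halved.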 Active and inactive are the calls of the source. Rule as the data show it: active = GI50 up to about 1.1 µM and inactive = higher.

For `c1ccc(CCCN2C3CCC2CN(CCOC(c2ccccc2)c2ccccc2)C3)cc1`, the GI50 is 13.4 µM (inactive) in assay [1]; 14 µM (inactive) in [2]; 13.7 µM (inactive) in assay [3]; 10.1 µM (inactive) in assay [4]; 10.9 µM (inactive) in assay [5]; 8.17 µM (inactive) in assay [6]. Also, the GI50 in assay [7] was 16.4 µM (inactive); in assay [8], 3.24 µM (inactive); in assay [9], 5.41 µM (inactive); in assay [10], 11.3 µM (inactive); in assay [11] it was 12.5 µM (inactive); in assay [12], 3.58 µM (inactive). Also, the GI50 was 11.4 µM (inactive) in assay [13]; 10 µM (inactive) in [14]; 3.3 µM (inactive) in [15]; 12.1 µM (inactive) in assay [16]; 12.1 µM (inactive) in assay [17]; 5.21 µM (inactive) in assay [18]. Moreover, the GI50 in assay [19] is 10.2 µM (inactive).

Regarding `CC[C@@H](O)C[C@H]1CCC[C@@]2(C[C@@H]3OC(=O)/C=C/[C@@](C)(O)[C@@H](O)[C@H](C)[C@@H](O)[C@H](OC4CCC(N(C)C)C(C)O4)[C@@H](O)[C@](C)(O)CCCCC/C=C/[C@@H]4CC(C)(C)O[C@@]4(O)C[C@H](O2)[C@H]3C)O1` (stereo not given in full), the GI50 in assay [1] was < 0.01 µM (active); in assay [2] it was 15.7 µM (inactive); in assay [3], 14.6 µM (inactive); in assay [4], 19.9 µM (inactive); in assay [5], < 0.01 µM (active); in [7], 11.3 µM (inactive). In addition, the GI50 is < 0.01 µM (active) in assay [8]; 3.61 µM (inactive) in [10]; 1.56 µM (inactive) in assay [11]; 14.7 µM (inactive) in assay [20]; 3.49 µM (inactive) in [12]; < 0.01 µM (active) in [13]. Also, the GI50 in assay [14] is 11.3 µM (inactive); in [15], < 0.01 µM (active); in [16] it was 1.82 µM (inactive); in [17], 16.4 µM (inactive); in assay [18], 2.4 µM (inactive); in assay [19] it was 5.2 µM (inactive).

Regarding `Cc1ccc(OC2CC(n3cnc4ncnc(Cl)c43)OC2Oc2ccc(C)cc2)cc1` (stereo not given), the GI50 in assay [1] is 2.59 µM (inactive); in assay [2], 18.7 µM (inactive); in assay [3], > 100 µM (inactive); in [4], 45.6 µM (inactive); in assay [5] it was 5.36 µM (inactive); in assay [6], 18.8 µM (inactive). For the same compound, the GI50 is 15.7 µM (inactive) in [7]; 12.6 µM (inactive) in [8]; 15.6 µM (inactive) in [9]; 2.11 µM (inactive) in assay [10]; 40.5 µM (inactive) in assay [11]; 16.9 µM (inactive) in assay [12]. The GI50 was 8.32 µM (inactive) in assay [13]; > 100 µM (inactive) in [14]; 18.5 µM (inactive) in assay [15]; 5.51 µM (inactive) in assay [16]; 29.6 µM (inactive) in [17]; 8.04 µM (inactive) in [18]. In [19], the GI50 is 27.9 µM (inactive).

As for `O=C(O)c1ccc(Nc2nc3cc(C(F)(F)F)ccc3nc2-c2ccccc2)cc1`, the GI50 is 19.1 µM (inactive) in [1]; 48.8 µM (inactive) in assay [2]; 16.3 µM (inactive) in assay [5]; 22.5 µM (inactive) in assay [6]; 25.8 µM (inactive) in assay [7]; 7.26 µM (inactive) in [8]. Moreover, the GI50 in [9] was 18.3 µM (inactive); in [10] it was 23.3 µM (inactive); in assay [11], 23.7 µM (inactive); in assay [20], 24 µM (inactive); in [12], 14.1 µM (inactive); in assay [13] it was 27.9 µM (inactive). Moreover, the GI50 is 18.7 µM (inactive) in assay [14]; 21 µM (inactive) in assay [15]; 15.2 µM (inactive) in assay [16]; 26 µM (inactive) in [17]; 16.7 µM (inactive) in assay [18].

In the case of `COC(=O)c1c(C)cccc1/C=C1\Cc2ccc(C)c(C)c2C1=O`, the GI50 in assay [1] is > 100 µM (inactive); in assay [2], 67.5 µM (inactive); in assay [4], 31 µM (inactive); in assay [5], 78.9 µM (inactive); in assay [7], > 100 µM (inactive); in [8], 76.7 µM (inactive). The GI50 was 40.6 µM (inactive) in assay [9]; > 100 µM (inactive) in assay [10]; > 100 µM (inactive) in assay [11]; 86.5 µM (inactive) in assay [20]; > 100 µM (inactive) in assay [12]; > 100 µM (inactive) in assay [13]. Besides, the GI50 in [14] was > 100 µM (inactive); in assay [15] it was > 100 µM (inactive); in assay [16], > 100 µM (inactive); in [17], > 100 µM (inactive); in assay [18], > 100 µM (inactive); in assay [19], 22.3 µM (inactive).

For the compound `CN(C)CCNC(=O)c1cc([N+](=O)[O-])ccn1`, the GI50 in assay [1] was 36.7 µM (inactive); in [2], 28.4 µM (inactive); in assay [3] it was 70.3 µM (inactive); in assay [4], > 100 µM (inactive); in [5] it was 18.1 µM (inactive); in [7] it was > 100 µM (inactive). Besides, the GI50 is 30.3 µM (inactive) in [8]; > 100 µM (inactive) in assay [9]; 34 µM (inactive) in [10]; 14.8 µM (inactive) in assay [11]; 41.6 µM (inactive) in assay [20]; 11.4 µM (inactive) in assay [12]. The GI50 in [13] was 27.2 µM (inactive); in assay [14], 42.5 µM (inactive); in assay [15], 18.6 µM (inactive); in assay [16], 30.1 µM (inactive); in [17] it was 23.8 µM (inactive); in [18] it was 40 µM (inactive). In addition, the GI50 in assay [19] is 20.2 µM (inactive).

Turning to `CC(C)(C)C1=CC(O)(c2c3ccccc3c(C3(O)C=C(C(C)(C)C)C(=O)C(C(C)(C)C)=C3)c3ccccc23)C=C(C(C)(C)C)C1=O`, the GI50 was > 100 µM (inactive) in assay [1]; > 100 µM (inactive) in assay [2]; > 100 µM (inactive) in [3]; 0.116 µM (active) in assay [4]; > 100 µM (inactive) in [5]; > 100 µM (inactive) in assay [6]. In addition, the GI50 is > 100 µM (inactive) in assay [7]; > 100 µM (inactive) in [8]; 35.2 µM (inactive) in assay [9]; > 100 µM (inactive) in assay [10]; > 100 µM (inactive) in assay [11]; > 100 µM (inactive) in [12]. Besides, the GI50 in assay [13], in [14], in assay [15], in assay [16], in assay [17] and in assay [19] was > 100 µM (inactive) throughout.

On to `COc1ccc(/C=N/n2c(=O)[nH]c3ccccc3c2=O)cc1`, for which the GI50 in assay [1], in assay [2], in assay [3], in [4], in assay [6] and in [7] was > 100 µM (inactive) throughout. Further, the GI50 in assay [8] is > 100 µM (inactive); in assay [9], 50.8 µM (inactive); in assay [10] it was > 100 µM (inactive); in assay [12], > 100 µM (inactive); in assay [13], > 100 µM (inactive); in assay [14] it was > 100 µM (inactive). For the same compound, the GI50 in assay [15], in [16] and in assay [17] was > 100 µM (inactive) each time.

In the case of `c1ccc(/N=C(\N2CCOCC2)N(CCN2CCOCC2)c2ccccc2)cc1`, the GI50 is > 100 µM (inactive) in assay [2]; > 100 µM (inactive) in [3]; > 100 µM (inactive) in [5]; > 10 µM (inactive) in assay [6]; > 100 µM (inactive) in assay [7]; > 100 µM (inactive) in assay [8]. Moreover, the GI50 in assay [9], in assay [10], in [11], in [20], in assay [12] and in [13] was > 100 µM (inactive) in each case. The GI50 in [14], in assay [15], in assay [16], in [17], in assay [18] and in assay [19] was > 100 µM (inactive) each time.

For `CN(CCC(=O)N1CC(CCl)c2ccc([N+](=O)[O-])cc21)CCC(=O)N1CC(CCl)c2ccc([N+](=O)[O-])cc21` (stereo not given), the GI50 in [1] is 0.074 µM (active); in assay [2] it was 12.1 µM (inactive); in assay [3] it was 29.6 µM (inactive); in assay [4] it was 19.3 µM (inactive); in assay [5], 6.53 µM (inactive); in assay [7], 31.5 µM (inactive). Besides, the GI50 in assay [8] is 25.1 µM (inactive); in assay [9] it was 2.56 µM (inactive); in [10], 18.7 µM (inactive); in [11], 10.1 µM (inactive); in assay [12], 11.7 µM (inactive); in [13] it was 14.3 µM (inactive). The GI50 in assay [14] is 10.9 µM (inactive); in assay [15], 12.3 µM (inactive); in [16] it was 7.87 µM (inactive); in [17], 19 µM (inactive); in [18], 5.79 µM (inactive); in assay [19] it was 42.7 µM (inactive).

Regarding `Nc1n[n+]([O-])c2cc([N+](=O)[O-])ccc2[n+]1[O-]`, the GI50 in assay [1] is 3.35 µM (inactive); in assay [3], 10.5 µM (inactive); in assay [4], 15.9 µM (inactive); in assay [5], 2.07 µM (inactive); in assay [6] it was 4.36 µM (inactive); in [7], 16.3 µM (inactive). The GI50 is 3.95 µM (inactive) in assay [8]; 26.7 µM (inactive) in [9]; 4.33 µM (inactive) in assay [10]; 2.53 µM (inactive) in assay [12]; 3.44 µM (inactive) in [13]; 4.63 µM (inactive) in assay [14]. Further, the GI50 in assay [15] was 7.71 µM (inactive); in [16] it was 1.38 µM (inactive); in [17], 5.14 µM (inactive); in assay [19], 3.43 µM (inactive).
